{"source": "patent US12296048B2", "about": "“Polymer particles for neutrophil injury” (THE REGENTS OF THE UNIVERSITY OF MICHIGAN, priority 2019, dated 2025)", "test_system": "mice with LPS-induced ALI", "assay_type": "in vivo", "method": "In a lipopolysaccharide (LPS) mouse model of ALI, LPS administered to the lungs of healthy mice induces rapid recruitment of neutrophils into the lungs.\nPoly-A microspheres were injected into the tail vein of mice with LPS-induced ALI at 30 mg/kg.\nMale BALB/c or C57BL/6J mice were anesthetized with inhaled isoflurane, and given 50 μL of 0.4 mg/mL LPS orotracheally to induce lung inflammation. Particles (2×10^8 in 100 μL PBS per mouse) were injected at either 2 hrs or 6 hrs post-instillation via tail vein catheter. Methods of euthanasia and sample processing are shared with the P. Aeruginosa model (below) except instead of cytospin BALF, cells were stained with CD45, CD11b, and Ly6G, and were fixed overnight before flow cytometry to determine the % of neutrophils and macrophages in each sample."}
{"smiles": "CC(=O)Oc1ccccc1C(=O)O", "note": "[aspirin]", "values": [{"measurement": "BALF concentration of KC", "setting": "LPS-ALI mice", "value": "not"}, {"measurement": "BALF concentration of MIP2", "setting": "LPS-ALI mice", "value": "not"}, {"measurement": "BALF neutrophil count compared to ALI mice with no particles", "setting": "tail vein injection 1 hr after LPS, Poly-A 30 mg/kg, aspirin in DMSO", "value": "did not reduce"}]}
